Test results published in patent publication US9580713B2 (priority 2011, dated 2017).
Where “and” joins values, the source holds several entries; their conditions need not be identical. Equal values may be shown once. Entries after “also recorded” stand apart in the source; their conditions may differ. Read-outs that look alike come from different tables or passages of the source.

Assays:
[1] = test system: 78 Psy crcB motif RNA (fluoride riboswitch aptamer); format: binding, Pseudomonas syringae
[2] = test system: crcB KO strain of E. coli; assay: microbe, parasite or virus in culture
Method: (§1) Cell growth of WT and crcB KO E. coli strains were measured overnight using a Bioscreen C instrument (Oy Growth Curves Ab Ltd, Finland). The amount of fluoride added to the media was varied to measure the effect on growth at several pH values. Reporter constructs with B. cereus or P. syringae riboswitch sequences fused to the lacZ gene were cloned into the vectors pDG1661 or pRS414, respectively. The two vectors were transformed into B. subtilis or E. coli, and gene expression was examined by addition of X-gal into grown cultures or quantified with Miller assays.
(§2) Growth curves to compare pH conditions used 350 μL of LB (neutral pH) or LBK medium (pH 5.5), 3.5 μL of an overnight culture, and 3.5 μL, of a 10× sodium fluoride or sodium chloride solution. Growth curves with empty or eriC^F-containing plasmid included 100 μg mL^−1 carbenicillin added to the growth medium (2XLB), which was subsequently diluted two-fold to a final concentration of 50 μg mL^−1.
(§3) E. coli strains BW25113 and its crcB KO derivative strain harboring the eriC^F riboswitch reporter construct were streaked on modified LB plates with carbenicillin (100 μg mL^−1) and X-gal (800 μg ml^−1). Plates included 0, 0.2 or 50 mM NaF.

[3] = test system: riboswitch associated with B. cereus crcB fused to lacZ; details: increasing amounts of fluoride, X-gal and Miller assays with ONPG
Method: as §1

crcB motif RNA [4] = details: read-out: KD for fluoride binding; in-line probing
Method: (§4) Briefly, in vitro transcribed RNA were 5′ ^32P-radiolabeled and trace amounts (˜1 nM) were incubated at room temperature for 48 hours (unless otherwise indicated) in the presence of 100 mM KCl, 50 mM Tris-HCl (pH 8.3 at 23° C.), and 20 mM MgCl2. Cleavage products were separated by using denaturing 10% PAGE and imaged with a PhosphorImager (Molecular Dynamics). ImageQuant 5.1 was used to establish band intensities. Exceptions to the typical in-line probing methods are detailed in the following sections.

[5] = test system: eriC^F-rescued E. coli crcB KO cells
Method: The eriC^F gene from P. syringae DC3000 was amplified from genomic DNA by PCR and cloned into the pCR2.1 TA vector (Invitrogen). The cloned fragment contained the full length eriC^F ORF, the 5′ UTR features described above, and the native promoter to drive expression.
as §2

[6] = test system: fluoride riboswitch from the P. syringae eriC gene fused to lacZ
Method: as §1
The 5′ UTR of COG0038 (eriC^F homolog) was amplified from P. syringae DC3000 genomic DNA as an EcoRI-BamHI fragment and cloned into the translational reporter vector pRS414. […] Specifically, the region encompassing nucleotides −248 to +24 with respect to the beginning of the eriC^F ORF was cloned as a translational fusion in pRS414, wherein the 8th codon of the ORF was fused in frame to the 9th codon of lacZ reporter gene. Mutations in the regulatory region were generated by a three-step PCR approach using methods described previously (A. Nahvi, et al., Chem. Biol. 9, 1043 (2002)).
as §3

crcB motif RNA [7] = details: read-out: KD for fluoride binding; in-line probing; remark: listed apart in the source
Method: as §4

[8] = test system: E. coli cells lacking the gene to express the fluoride transporter protein CrcB; assay: Fluoride riboswitch beta-galactosidase reporter (4-MUG) in E. coli lacking CrcB with imipramine; format: cell-based; details: same construct in cells lacking CrcB, compared with cells having CrcB
Description: (§5) A fluoride riboswitch fused to a beta-galactosidase reporter gene is present in E. coli cells and cells are exposed to concentrations of sodium fluoride and imipramine (x-axis) as noted. The structure of imipramine is shown below.

[9] = target: T1, fluoride transporter protein CrcB (Escherichia coli, UniProt P37002); assay: Fluoride riboswitch beta-galactosidase reporter (4-MUG) in E. coli with imipramine; format: cell-based
T1 construct: this bacterial species does code for a CrcB protein; endogenous in cells; host or cells: E. coli
Description: as §5

[10] = ligands at 10 mM or as in footnotes of Tables 1 and 2 (CO ~0.9 mM, NO 1 mM)

T1 sequence (P37002 whole entry): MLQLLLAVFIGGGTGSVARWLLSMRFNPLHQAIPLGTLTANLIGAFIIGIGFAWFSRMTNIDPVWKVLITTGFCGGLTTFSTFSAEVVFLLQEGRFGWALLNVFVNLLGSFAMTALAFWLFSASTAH
Method for WT E. coli cells: For each bacterial strain, an overnight culture was set up of the desired bacteria the previous day. The majority of the growth curves were conducted in 350 μL LB medium that initially was not supplemented with salt. […] The desired concentration of NaF or NaCl was subsequently added as designated for each culture after a 1:100 dilution of an overnight culture. Wells with NaF concentrations below 1 mM were supplemented with 1 mM NaCl. Each condition was set up in duplicate or triplicate. Every fifteen minutes the 100-well plate was shaken at medium intensity for 10 seconds and the OD600 was automatically measured for a period of 16 hours. The data was analyzed using Microsoft Excel.

In the case of [Ca+2].[Cl-].[Cl-] [Ca^2+, calcium chloride], the “effect on fluoride-dependent RNA structural modulation” value [1] is reported as “diminishes RNA structural modulation; also recorded: complete loss of modulation”.

In the case of [F-].[Na+] [NaF, sodium fluoride], the “conformational changes of 78 Psy crcB motif RNA” value [1] is reported as “trigger identical conformational changes”, the “concentration at which growth becomes noticeably reduced” value (WT E. coli cells; liquid media) is reported as 30 mM and the “minimum inhibitory concentration (MIC)” value (WT E. coli cells; liquid media, 16 hr growth curves) is reported as roughly 200 mM.

For CCCC[N+](CCCC)(CCCC)CCCC.[F-] [TBAF, Tetra-n-butylammonium fluoride], the “conformational changes of 78 Psy crcB motif RNA” value [1] was “trigger identical conformational changes”.

In the case of Br [bromide], the “binding / structure modulation by other ligands” value (“binding / structure modulation” for short) [1] is reported as “rejects”.

[C-]#[O+] [carbon monoxide] was tested, and the “binding / structure modulation” value [1, 10] was “rejected”.

In the case of Cl [chloride], the “78 Psy aptamer structure on exposure to chloride” value [1] is reported as “remains unchanged” and the “binding / structure modulation” value [1] is reported as “rejects”.

For F [fluoride], the growth ([2]; 50 mM fluoride) was “fails to grow”, the MIC ([2]; Escherichia coli, 16 h, read-out: minimum inhibitory concentration (MIC)) was greater than 1 mM and the β-galactosidase reporter activity [3] was “induced high levels of expression”. For the same compound, the Kd (crcB motif RNA [4]) was roughly 50 µM, the growth inhibition ([5]; 1 mM fluoride) was “almost no growth inhibition” and the “fluoride concentration in culture medium required to cause growth inhibition and reporter expression” value ([5]; eriC^F-rescued cells) was roughly 10 mM. For the same compound, the “fluoride concentration in growth medium yielding maximal reporter gene signal” value ([6]; crcB K.O. strain) was 1 mM, the β-galactosidase expression ([6]; solid medium supplemented with 50 mM fluoride) was “readily apparent” and the Kd (crcB motif RNA [7]) was roughly 50 µM. The “selectivity of aptamer binding, fluoride versus chloride” value [1] was “at least 40,000 fold”, the Kd ([1]; read-out: apparent dissociation constant (KD)) was ~60 µM and 60 µM and the growth (WT E. coli cells; 50 mM fluoride) was “robust growth”.

With O [hydroxide ions, hydroxide] the “RNA conformational changes with hydroxide” value ([1]; pH 9.7) was “do not trigger RNA conformational changes”.

For CN(C)CCCN1c2ccccc2CCc2ccccc21 [imipramine, 3-(10,11-dihydro-5H-dibenzo[b,f]azepin-5-yl)-N,N-dimethylpropan-1-amine], the “level of reporter gene expression with imipramine” value [8] was “substantially reduced”, the “reporter gene expression (fluorescence, 4-MUG)” value ([9]; 330 μM imipramine, with sodium fluoride) was “increased expression of the reporter gene” and the “action on fluoride transporter CrcB” value ([9]; concluded from reporter results with and without CrcB) was “blocks this fluoride transporter”.

For I [iodide], the “binding / structure modulation” value [1, 10] was “rejects”.

[N]=O [nitric oxide] was tested, and the “binding / structure modulation” value [1, 10] was “rejected”.

In the case of F.[F-].[K+] [potassium bifluoride], the “conformational changes of 78 Psy crcB motif RNA” value [1] is reported as “trigger identical conformational changes”.
